In patent US20240059691A1 (KALVISTA PHARMACEUTICALS LIMITED, priority 2020, published 2024):
Read-outs that look alike come from different tables or passages of the source.

Assays:
Plasmin = Plasmin (Homo sapiens (Human), UniProt P00747); assay: Determination of related protease inhibition: Plasmin (fluorogenic substrate at Km); assay type: biochemical; conditions: 25° C.
Experimental: (§1) Determination of Related Protease Inhibition
(§2) In vitro inhibition of related proteases was determined using an ([…] assay based on standard literature methods (see e.g. Shori et al., Biochem. Pharmacol., 1992, 43, 1209; Bouckaert et al., European Journal of Medicinal Chemistry 110 (2016) 181). Human serine protease enzymes Plasma Kallikrein, KLK1, FXa, Plasmin, Thrombin and Trypsin were assayed for enzymatic activity using an appropriate fluorogenic substrate at Km concentration, FXIa at fixed substrate concentration of 100 μM, and various concentrations of the test compound. Protease activity was measured by monitoring the accumulation of liberated fluorescence from the substrate over […]. The linear rate of fluorescence increase per minute was expressed as percentage (%) activity. IC50 values were calculated as the concentration of inhibitor giving 50% inhibition of the uninhibited enzyme activity (100%).

Human Factor XIIa = Human Factor XIIa (Homo sapiens (Human), UniProt P00748); assay: Determination of FXIIa inhibition (fluorogenic substrate H-DPro-Phe-Arg-AFC, IC50 assay); assay type: biochemical; conditions: substrate H-DPro-Phe-Arg-AFC at Km, 25° C.; class scale A-G
How it was run: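 IC50 derived from % remaining activity, taken as the linear fluorescence rate over a 5 min read at 25° C. Substrate H-DPro-Phe-Arg-AFC was used at its Km (Michaelis-Menten) with human FXIIa and serial compound dilutions, 25° C.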

KLK1 = KLK1 (Homo sapiens (Human), UniProt P06870); assay: Determination of related protease inhibition: KLK1 (fluorogenic substrate at Km); assay type: biochemical; conditions: 25° C.
How it was run: (§3)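 IC50 derived as the concentration halving uninhibited activity, from linear fluorescence increase per minute monitored 5 min at 25 °C. Each human protease was run with its fluorogenic substrate at Km concentration across a range of test compound concentrations.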

FXa = FXa (Homo sapiens (Human), UniProt P00742); assay: Determination of related protease inhibition: FXa (fluorogenic substrate at Km); assay type: biochemical; conditions: 25° C.
How it was run: as §3

Plasma Kallikrein = Plasma Kallikrein (Homo sapiens (Human), UniProt P03952); assay: Determination of related protease inhibition: Plasma Kallikrein (fluorogenic substrate at Km); assay type: biochemical; conditions: 25° C., read-out: IC50 (human PKal)
How it was run: as §3

Thrombin = Thrombin (Homo sapiens (Human), UniProt P00734); assay: Determination of related protease inhibition: Thrombin (fluorogenic substrate at Km); assay type: biochemical; conditions: 25° C.
How it was run: as §3

[1] = Pharmacokinetics following a single intravenous dose and a single oral dose in male Sprague-Dawley rats (oral bioavailability, half-life); assay type: in vivo; conditions: rat, plasma, 10% DMSO/10% Cremophor EL/80% SWFI; for bioavailability: read-out: F % (oral bioavailability)
Experimental: Pharmacokinetic studies of the compounds in Table 16 were performed to assess the pharmacokinetics following a single intravenous dose and a single oral dose in male Sprague-Dawley rats. Two rats were given a single intravenous dose of 1 mL/kg of a nominal 1 mg/mL (1 mg/kg) composition of test compound in 10% DMSO/10% Cremophor EL/80% SWFI vehicle. Example 2191 was dosed at 1 mL/kg of a nominal 2 mg/mL (2 mg/kg) using the same vehicle.
Two rats were given a single oral dose of 5 mL/kg of a nominal 1 mg/mL (5 mg/kg) composition of test compound in 10% DMSO/10% Cremophor EL/80% SWFI vehicle. Example 2191 was dosed at 5 mL/kg of a nominal 2 mg/mL (10 mg/kg) using the same vehicle.
Following intravenous dosing, blood samples were collected over a period of 12 h. Sample times were 2, 5, 15 and 30 min then 1, 2, 4, 6, and 12 h. Following oral dosing, blood samples were collected over a period of 24 h. Sample times were 5, 15 and 30 min then 1, 2, 4, 6, 8, 12 and 24 h.
Following collection, blood samples were centrifuged and the plasma fraction analysed for concentration of test compound by LCMS. Oral bioavailability and half-life calculations from these studies were obtained using Phoenix WinNonlin (v8.0) and are shown below: […]

FXIa = FXIa (Homo sapiens (Human), UniProt P03951); assay: Determination of related protease inhibition: FXIa (fixed substrate concentration of 100 μM); assay type: biochemical; conditions: 25° C.
Experimental: as §1, §2

Trypsin = assay: Determination of related protease inhibition: Trypsin (fluorogenic substrate at Km); assay type: biochemical, human; conditions: 25° C.
Experimental: as §1, §2

FXa, sequence (P00742 235-488): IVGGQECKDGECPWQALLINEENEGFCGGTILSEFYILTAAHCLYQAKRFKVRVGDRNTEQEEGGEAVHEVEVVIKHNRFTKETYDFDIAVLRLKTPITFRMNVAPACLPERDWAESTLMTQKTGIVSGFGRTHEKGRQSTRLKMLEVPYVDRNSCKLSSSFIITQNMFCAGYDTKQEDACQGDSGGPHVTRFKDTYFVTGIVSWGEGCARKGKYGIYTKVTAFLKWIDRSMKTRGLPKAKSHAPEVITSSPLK
FXa, sequence (P00742 41-179 partner): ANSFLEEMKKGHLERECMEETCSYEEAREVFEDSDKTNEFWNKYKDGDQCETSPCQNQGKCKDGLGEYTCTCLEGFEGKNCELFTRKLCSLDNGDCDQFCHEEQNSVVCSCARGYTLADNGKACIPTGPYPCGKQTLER
KLK1, sequence (P06870 25-262): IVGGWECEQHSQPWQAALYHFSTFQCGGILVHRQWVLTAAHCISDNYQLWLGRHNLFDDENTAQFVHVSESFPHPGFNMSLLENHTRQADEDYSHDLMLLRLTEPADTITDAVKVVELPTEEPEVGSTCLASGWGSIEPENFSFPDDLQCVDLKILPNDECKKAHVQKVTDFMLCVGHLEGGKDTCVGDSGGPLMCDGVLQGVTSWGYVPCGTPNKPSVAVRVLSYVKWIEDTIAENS
Plasma Kallikrein, sequence (P03952 391-638): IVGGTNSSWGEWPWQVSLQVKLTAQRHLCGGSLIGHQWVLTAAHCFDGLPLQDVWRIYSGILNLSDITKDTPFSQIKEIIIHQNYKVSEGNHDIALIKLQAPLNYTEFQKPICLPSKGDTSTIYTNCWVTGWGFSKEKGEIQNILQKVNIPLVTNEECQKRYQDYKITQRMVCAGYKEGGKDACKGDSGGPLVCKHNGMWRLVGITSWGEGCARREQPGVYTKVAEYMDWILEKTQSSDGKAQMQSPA
Plasma Kallikrein, sequence (P03952 20-390 partner): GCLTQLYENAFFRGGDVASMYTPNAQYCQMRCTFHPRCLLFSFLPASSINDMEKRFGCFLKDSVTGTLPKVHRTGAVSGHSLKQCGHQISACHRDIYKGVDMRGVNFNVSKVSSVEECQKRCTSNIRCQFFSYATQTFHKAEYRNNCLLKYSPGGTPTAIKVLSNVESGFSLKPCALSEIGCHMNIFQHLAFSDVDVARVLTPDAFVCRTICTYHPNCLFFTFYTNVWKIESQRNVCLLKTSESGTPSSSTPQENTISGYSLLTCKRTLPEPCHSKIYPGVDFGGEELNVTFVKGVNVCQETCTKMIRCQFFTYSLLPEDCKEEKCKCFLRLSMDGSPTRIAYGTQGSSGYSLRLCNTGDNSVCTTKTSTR
Plasmin, sequence (P00747 581-810): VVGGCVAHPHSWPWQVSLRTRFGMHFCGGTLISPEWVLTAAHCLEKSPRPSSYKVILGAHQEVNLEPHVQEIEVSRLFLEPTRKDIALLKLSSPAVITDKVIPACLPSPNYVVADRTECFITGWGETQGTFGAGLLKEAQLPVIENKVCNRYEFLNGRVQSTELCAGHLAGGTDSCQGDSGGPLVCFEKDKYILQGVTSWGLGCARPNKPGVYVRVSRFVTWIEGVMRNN
Plasmin, sequence (P00747 97-580 partner): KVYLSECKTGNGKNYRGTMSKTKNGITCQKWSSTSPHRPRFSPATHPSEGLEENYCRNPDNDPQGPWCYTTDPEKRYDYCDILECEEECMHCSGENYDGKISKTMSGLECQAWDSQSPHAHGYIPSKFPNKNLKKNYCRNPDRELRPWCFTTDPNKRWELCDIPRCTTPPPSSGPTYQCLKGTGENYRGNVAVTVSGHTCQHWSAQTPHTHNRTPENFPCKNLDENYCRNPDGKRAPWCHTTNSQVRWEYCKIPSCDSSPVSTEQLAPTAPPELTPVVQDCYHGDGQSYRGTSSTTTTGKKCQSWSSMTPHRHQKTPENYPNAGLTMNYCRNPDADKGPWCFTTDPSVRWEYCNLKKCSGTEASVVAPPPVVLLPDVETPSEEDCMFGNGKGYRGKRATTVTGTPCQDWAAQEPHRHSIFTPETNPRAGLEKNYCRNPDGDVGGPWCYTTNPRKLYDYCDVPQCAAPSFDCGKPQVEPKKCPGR
Human Factor XIIa, sequence (P00748 373-615): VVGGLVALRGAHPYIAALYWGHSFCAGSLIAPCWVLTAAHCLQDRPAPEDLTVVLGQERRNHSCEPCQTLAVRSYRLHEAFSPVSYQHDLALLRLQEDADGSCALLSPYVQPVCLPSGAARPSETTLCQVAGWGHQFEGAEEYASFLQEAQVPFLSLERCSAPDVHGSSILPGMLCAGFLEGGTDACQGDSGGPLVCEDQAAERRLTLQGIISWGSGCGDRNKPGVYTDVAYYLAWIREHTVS
FXIa, sequence (P03951 388-625): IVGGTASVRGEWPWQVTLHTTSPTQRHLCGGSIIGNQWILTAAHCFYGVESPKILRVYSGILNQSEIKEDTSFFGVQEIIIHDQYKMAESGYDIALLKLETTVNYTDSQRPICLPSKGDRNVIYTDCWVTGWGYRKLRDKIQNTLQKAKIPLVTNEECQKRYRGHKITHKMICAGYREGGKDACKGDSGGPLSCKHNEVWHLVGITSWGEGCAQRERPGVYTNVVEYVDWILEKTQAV
FXIa, sequence (P03951 19-387 partner): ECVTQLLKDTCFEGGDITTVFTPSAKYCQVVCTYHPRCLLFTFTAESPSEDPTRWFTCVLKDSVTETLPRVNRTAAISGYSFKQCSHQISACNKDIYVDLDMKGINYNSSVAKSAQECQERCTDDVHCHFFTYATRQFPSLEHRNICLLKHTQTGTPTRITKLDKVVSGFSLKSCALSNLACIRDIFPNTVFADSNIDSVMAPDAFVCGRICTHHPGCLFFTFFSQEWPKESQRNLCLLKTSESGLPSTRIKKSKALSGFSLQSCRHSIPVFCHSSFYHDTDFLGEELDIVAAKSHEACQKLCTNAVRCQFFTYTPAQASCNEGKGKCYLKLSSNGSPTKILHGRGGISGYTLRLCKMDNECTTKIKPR

| SMILES | IC50 (Plasmin) [µM] | IC50 (Human Factor XIIa) [µM] | IC50 (KLK1) [µM] | IC50 (FXa) [µM] | IC50 (Plasma Kallikrein) [µM] | IC50 (Thrombin) [µM] | half-life [1] [h] | bioavailability [1] [%] | IC50 (FXIa) [µM] | IC50 (Trypsin) [µM] | bioavailability ([1]; 5 mg/kg) [%] |
| --- | --- | --- | --- | --- | --- | --- | --- | --- | --- | --- | --- |
| CN1CCC(Oc2cc(CNc3ccc4c(N)nccc4c3)ccn2)CC1 [Example 4259, N6-((2-((1-methylpiperidin-4-yl)oxy)pyridin-4-yl)methyl)isoquinoline-1,6-diamine] | > 40 | 0.3 to 1 | 10 to 40 | 3 to 10 | 10 to 40 | 1 to 3 |  |  |  |  |  |
| CN1CCC(COc2cc(CNc3cccc4c(N)nccc34)ccn2)CC1 [Example 4260, N5-((2-((1-methylpiperidin-4-yl)methoxy)pyridin-4-yl)methyl)isoquinoline-1,5-diamine] |  | 0.1 to 0.3 |  | > 20 | > 20 | > 20 | 9.98 | 13.6 | > 20 |  |  |
| Nc1ncc(F)c2c(NCc3ccnc(OCC4CCn5ccnc5C4)c3)cccc12 (stereo not drawn) [Example 4308, 4-fluoro-5-N-[(2-{5H,6H,7H,8H-imidazo[1,2-a]pyridin-7-ylmethoxy}pyridin-4-yl)methyl]isoquinoline-1,5-diamine] | > 40 | 3 to 10 | 10 to 40 | > 40 | > 40 | > 40 |  |  | > 40 | > 40 |  |
| CN1CCC(COc2cc(CNc3cccc4[nH]nc(Cl)c34)ccn2)CC1 [Example 4454, 3-chloro-N-((2-((1-methylpiperidin-4-yl)methoxy)pyridin-4-yl)methyl)-1H-indazol-4-amine] | > 40 |  | 1 to 3 | > 40 | > 100 | > 40 |  |  | > 40 | > 40 |  |
| CN1CCC(COc2cc(CNc3ccc4cnccc4c3)ccn2)CC1 [Example 4262, N-({2-[(1-methylpiperidin-4-yl)methoxy]pyridin-4-yl}methyl)isoquinolin-6-amine] | > 40 | 3 to 10 | 10 to 40 | 10 to 40 | 10 to 40 | > 40 |  |  | > 40 | > 40 |  |
| CN1CCC(OCc2ccc(CNc3ccc4c(N)nccc4c3)c(F)c2)CC1 [Example 2191, N6-(2-fluoro-4-(((1-methylpiperidin-4-yl)oxy)methyl)benzyl)isoquinoline-1,6-diamine] |  | 0.1 to 0.3 |  | 10 to 40 | 10 to 40 | > 40 | 9.02 | 22.8 | > 40 |  |  |
| CN1CCC(Oc2ccc(CNc3cccc4c(N)nccc34)cc2)CC1 [Example 1002, 5-N-({4-[(1-methylpiperidin-4-yl)oxy]phenyl}methyl)isoquinoline-1,5-diamine] | > 40 | 0.1 to 0.3 |  | 10 to 40 |  | > 40 |  |  |  | > 40 |  |
| Cc1cc(N2CCn3c(nnc3C(F)(F)F)C2)ncc1CNc1cccc2c(N)nccc12 [Example 1282, N5-((4-Methyl-6-(3-(trifluoromethyl)-5,6-dihydro-[1,2,4]triazolo[4,3-a]pyrazin-7(8H)-yl)pyridin-3-yl)methyl)isoquinoline-1,5-diamine] |  | 0.01 to 0.1 | 3 to 10 | > 4 | > 40 |  | 2.34 | 53.2 |  |  |  |
| CN1CCC(CNc2ccc(CNc3ccnc4[nH]c(Cl)cc34)cn2)CC1 [Example 1243, 2-chloro-N-((6-(((1-methylpiperidin-4-yl)methyl)amino)pyridin-3-yl)methyl)-1H-pyrrolo [2,3-b]pyridin-4-amine] |  | 0.01 to 0.1 | 10 to 40 | 10 to 40 | > 40 | > 40 | 8.76 | 4.9 |  |  |  |
| Nc1ncc(Cl)c2cc(NCc3ccnc(N4CCn5ccnc5C4)c3)ccc12 [Example 4437, 4-chloro-6-N-[(2-{5H,6H,8H-imidazo[1,2-a]pyrazin-7-yl}pyridin-4-yl)methyl]isoquinoline-1,6-diamine] | > 40 | 0.1 to 0.3 | 3 to 10 | 3 to 10 | > 40 | 10 to 40 |  |  | > 40 | > 40 |  |
| FC(F)c1nnc2n1CCN(c1ccc(CNc3ccnc4[nH]c(Cl)cc34)cn1)C2 [Example 1277, 2-chloro-N-((6-(3-(difluoromethyl)-5,6-dihydro-[1,2,4]triazolo[4,3-a]pyrazin-7(8H)-yl)pyridin-3-yl)methyl)-1H-pyrrolo[2,3-b]pyridin-4-amine] |  | 0.3 to 1 | 10 to 40 | > 40 | > 40 | 10 to 40 | 1.35 | 25 |  |  |  |
| Cc1cc(N2CCn3c(nnc3C(F)(F)F)C2C)ncc1CNc1cccc2c(N)nccc12 (single isomer, unassigned) [Example 1305, (S*)-N5-((4-methyl-6-(8-methyl-3-(trifluoromethyl)-5,6-dihydro-[1,2,4]triazolo[4,3-a]pyrazin-7(8H)-yl)pyridin-3-yl)methyl)isoquinoline-1,5-diamine] |  | 0.01 to 0.1 | > 4 |  |  |  | 4.04 | 79.4 |  |  |  |
| CN1CCC(OCc2ccc(CNc3cccc4c(N)nccc34)c(F)c2)CC1 [Example 2197, N5-(2-fluoro-4-(((1-methylpiperidin-4-yl)oxy)methyl)benzyl)isoquinoline-1,5-diamine] |  | 0.01 to 0.1 |  | > 20 | > 20 | > 20 | 6.87 |  | > 20 |  | 26.6 |
| Nc1nccc2c(NCc3ccc(OCC4CCn5ccnc5C4)nc3)cccc12 (single isomer, unassigned) [Example 1029, (R*)-N5-((6-((5,6,7,8-tetrahydroimidazo[1,2-a]pyridin-7-yl)methoxy)pyridin-3-yl)methyl)isoquinoline-1,5-diamine] |  | 0.1 to 0.3 | 3 to 10 | 10 to 40 | 10 to 40 | 10 to 40 | 6.18 | 9.7 |  |  |  |
| CN1CCC(Oc2ccc(CNc3ccc4c(N)nccc4c3)cn2)CC1 [Example 1001, 6-N-({6-[(1-methylpiperidin-4-yl)oxy]pyridin-3-yl}methyl)isoquinoline-1,6-diamine] | > 40 | 0.3 to 1 |  | 1 to 3 | 1 to 3 | 1 to 3 |  |  |  | 10 to 40 |  |
| Nc1nccc2c(NCc3ccc(N4CCn5c(nnc5C(F)F)C4)nc3)cccc12 [Example 1274, N5-((6-(3-(Difluoromethyl)-5,6-dihydro-[1,2,4]triazolo[4,3-a]pyrazin-7(8H)-yl)pyridin-3-yl)methyl)isoquinoline-1,5-diamine] |  | 0.3 to 1 | 1 to 3 | > 40 | > 40 | 10 to 40 | 2.52 | 32.1 |  |  |  |
| CN1CCC(OCc2ccc(CNc3cccc4c(N)nccc34)cc2)CC1 [Example 2186, N5-(4-(((1-methylpiperidin-4-yl)oxy)methyl)benzyl)isoquinoline-1,5-diamine] |  | 0.1 to 0.3 |  | 10 to 40 | 10 to 40 | > 40 | 4.39 | 15.8 | > 40 |  |  |
